# Measured values published in the NIST ThermoML archive (doi:10.1016/j.jct.2016.11.007).
# ± gives the expanded uncertainty stated by the source.
# Experiment: mn = molality of the nth substance listed, in mol/kg
# Settings: Liquid, Alternating current cell with electrodes
compound,measurement,setting,value
OB(O)O [boric acid] + O,electrical conductivity,"298.15 K, 19767 kPa, m1 = 0.000461",2.9e-05 ± 2.2e-05 S/m
same,electrical conductivity,"298.15 K, 19767 kPa, m1 = 0.001034",4.34e-05 ± 2.2e-05 S/m
same,electrical conductivity,"298.15 K, 19767 kPa, m1 = 0.002214",7.29e-05 ± 2.2e-05 S/m
same,electrical conductivity,"298.15 K, 19767 kPa, m1 = 0.003558",8.46e-05 ± 2.3e-05 S/m
same,electrical conductivity,"298.15 K, 19767 kPa, m1 = 0.006801",0.000104 ± 2.3e-05 S/m
same,electrical conductivity,"298.15 K, 19767 kPa, m1 = 0.01448",0.000141 ± 1.5e-05 S/m
same,electrical conductivity,"298.15 K, 19767 kPa, m1 = 0.03227",0.000203 ± 2.9e-05 S/m
same,electrical conductivity,"298.15 K, 19767 kPa, m1 = 0.05626",0.000261 ± 5e-05 S/m
same,electrical conductivity,"298.15 K, 19767 kPa, m1 = 0.1313",0.000513 ± 3.1e-05 S/m
same,electrical conductivity,"373.33 K, 19683 kPa, m1 = 0.002216",0.000155 ± 9.3e-06 S/m
same,electrical conductivity,"373.33 K, 19683 kPa, m1 = 0.01449",0.000175 ± 3.5e-05 S/m
same,electrical conductivity,"373.33 K, 19683 kPa, m1 = 0.02381",0.000262 ± 1.6e-05 S/m
same,electrical conductivity,"373.33 K, 19683 kPa, m1 = 0.04334",0.000409 ± 2.5e-05 S/m
same,electrical conductivity,"373.33 K, 19683 kPa, m1 = 0.07421",0.000597 ± 3.6e-05 S/m
same,electrical conductivity,"448.23 K, 19666 kPa, m1 = 0.0004623",0.000302 ± 1.8e-05 S/m
same,electrical conductivity,"448.23 K, 19666 kPa, m1 = 0.00294",0.000347 ± 2.1e-05 S/m
same,electrical conductivity,"448.23 K, 19666 kPa, m1 = 0.00873",0.000421 ± 2.5e-05 S/m
same,electrical conductivity,"448.23 K, 19666 kPa, m1 = 0.01287",0.000473 ± 2.9e-05 S/m
same,electrical conductivity,"448.23 K, 19666 kPa, m1 = 0.0243",0.00059 ± 3.6e-05 S/m
same,electrical conductivity,"448.23 K, 19666 kPa, m1 = 0.03791",0.000706 ± 4.2e-05 S/m
same,electrical conductivity,"448.23 K, 19666 kPa, m1 = 0.07013",0.000939 ± 5.7e-05 S/m
same,electrical conductivity,"448.23 K, 19666 kPa, m1 = 0.1015",0.00114 ± 6.8e-05 S/m
same,electrical conductivity,"523.32 K, 19674 kPa, m1 = 0.0005523",0.000382 ± 2.3e-05 S/m
same,electrical conductivity,"523.32 K, 19674 kPa, m1 = 0.001757",0.000393 ± 2.4e-05 S/m
same,electrical conductivity,"523.32 K, 19674 kPa, m1 = 0.004534",0.000408 ± 2.4e-05 S/m
same,electrical conductivity,"523.32 K, 19674 kPa, m1 = 0.009517",0.000445 ± 2.7e-05 S/m
same,electrical conductivity,"523.32 K, 19674 kPa, m1 = 0.02168",0.000515 ± 3.1e-05 S/m
same,electrical conductivity,"523.32 K, 19674 kPa, m1 = 0.04237",0.000632 ± 3.8e-05 S/m
same,electrical conductivity,"523.32 K, 19674 kPa, m1 = 0.07216",0.00078 ± 4.7e-05 S/m
same,electrical conductivity,"523.32 K, 19674 kPa, m1 = 0.1017",0.000922 ± 5.5e-05 S/m
same,electrical conductivity,"547.2 K, 20900 kPa, m1 = 0.0009361",0.000382 ± 2.3e-05 S/m
same,electrical conductivity,"547.2 K, 20900 kPa, m1 = 0.002371",0.000395 ± 2.4e-05 S/m
same,electrical conductivity,"547.2 K, 20900 kPa, m1 = 0.003744",0.000405 ± 2.5e-05 S/m
same,electrical conductivity,"547.2 K, 20900 kPa, m1 = 0.00586",0.000419 ± 2.6e-05 S/m
same,electrical conductivity,"547.2 K, 20900 kPa, m1 = 0.008845",0.000439 ± 5.1e-05 S/m
same,electrical conductivity,"547.2 K, 20900 kPa, m1 = 0.01163",0.000459 ± 5.2e-05 S/m
same,electrical conductivity,"547.2 K, 20900 kPa, m1 = 0.01515",0.000481 ± 5.1e-05 S/m
same,electrical conductivity,"547.2 K, 20900 kPa, m1 = 0.02429",0.000535 ± 3.2e-05 S/m
same,electrical conductivity,"548.35 K, 19600 kPa, m1 = 0.0008359",0.000374 ± 2.5e-05 S/m
same,electrical conductivity,"548.35 K, 19600 kPa, m1 = 0.002368",0.000385 ± 2.5e-05 S/m
same,electrical conductivity,"548.35 K, 19600 kPa, m1 = 0.005537",0.000406 ± 2.7e-05 S/m
same,electrical conductivity,"548.35 K, 19600 kPa, m1 = 0.01208",0.000447 ± 2.7e-05 S/m
same,electrical conductivity,"548.35 K, 19600 kPa, m1 = 0.02063",0.000495 ± 3e-05 S/m
same,electrical conductivity,"548.35 K, 19600 kPa, m1 = 0.0288",0.000538 ± 3.2e-05 S/m
same,electrical conductivity,"548.35 K, 19600 kPa, m1 = 0.04625",0.000617 ± 3.7e-05 S/m
same,electrical conductivity,"548.35 K, 19600 kPa, m1 = 0.1015",0.000921 ± 5.5e-05 S/m
same,electrical conductivity,"571.07 K, 19463 kPa, m1 = 0.000429",0.000323 ± 2.2e-05 S/m
same,electrical conductivity,"571.07 K, 19463 kPa, m1 = 0.001139",0.000331 ± 2.2e-05 S/m
same,electrical conductivity,"571.07 K, 19463 kPa, m1 = 0.004203",0.00035 ± 2.3e-05 S/m
same,electrical conductivity,"572.82 K, 20769 kPa, m1 = 0.0002704",0.000339 ± 2.1e-05 S/m
same,electrical conductivity,"572.82 K, 20769 kPa, m1 = 0.0005746",0.000349 ± 2.1e-05 S/m
same,electrical conductivity,"572.82 K, 20769 kPa, m1 = 0.001483",0.000358 ± 2.2e-05 S/m
same,electrical conductivity,"572.82 K, 20769 kPa, m1 = 0.00287",0.000369 ± 2.2e-05 S/m
same,electrical conductivity,"572.82 K, 20769 kPa, m1 = 0.006337",0.000389 ± 2.3e-05 S/m
same,electrical conductivity,"572.82 K, 20769 kPa, m1 = 0.01032",0.000414 ± 2.5e-05 S/m
same,electrical conductivity,"572.82 K, 20769 kPa, m1 = 0.01719",0.000445 ± 2.7e-05 S/m
same,electrical conductivity,"572.82 K, 20769 kPa, m1 = 0.0361",0.000516 ± 3.1e-05 S/m
same,electrical conductivity,"572.82 K, 20769 kPa, m1 = 0.05276",0.000569 ± 3.4e-05 S/m
same,electrical conductivity,"597.9 K, 20618 kPa, m1 = 0.0004999",0.000217 ± 2.6e-05 S/m
same,electrical conductivity,"597.9 K, 20618 kPa, m1 = 0.0008991",0.000223 ± 2.7e-05 S/m
same,electrical conductivity,"597.9 K, 20618 kPa, m1 = 0.001756",0.000227 ± 2.7e-05 S/m
same,electrical conductivity,"597.9 K, 20618 kPa, m1 = 0.003156",0.000233 ± 2.8e-05 S/m
same,electrical conductivity,"597.9 K, 20618 kPa, m1 = 0.00593",0.000242 ± 2.9e-05 S/m
same,electrical conductivity,"597.9 K, 20618 kPa, m1 = 0.01032",0.000257 ± 3.1e-05 S/m
same,electrical conductivity,"597.9 K, 20618 kPa, m1 = 0.02561",0.000303 ± 3.6e-05 S/m
same,electrical conductivity,"621.13 K, 20620 kPa, m1 = 0.0003582",0.000117 ± 1.4e-05 S/m
same,electrical conductivity,"621.13 K, 20620 kPa, m1 = 0.0009385",0.000117 ± 1.4e-05 S/m
same,electrical conductivity,"621.13 K, 20620 kPa, m1 = 0.002851",0.00012 ± 1.4e-05 S/m
same,electrical conductivity,"621.13 K, 20620 kPa, m1 = 0.00498",0.000125 ± 1.5e-05 S/m
same,electrical conductivity,"621.13 K, 20620 kPa, m1 = 0.01107",0.000138 ± 1.7e-05 S/m
same,electrical conductivity,"621.13 K, 20620 kPa, m1 = 0.01908",0.000161 ± 1.9e-05 S/m
